# Assay results published in ChEMBL document CHEMBL3120093 (J Med Chem, 2014).
# Legend:
# Liver microsome [1] = test: Metabolic stability of the compound in rat liver microsomes assessed as […] formation at 10 uM after 30 mins; format: ADME; settings: 0.5 h
# Liver microsome [2] = test: Metabolic stability of the compound in human liver microsomes assessed as cyanide adduct formation at 10 uM after 30 mins; format: ADME; settings: 0.5 h
# Liver microsome [3] = test: Metabolic stability of the compound in human liver microsomes assessed as GSH adduct formation at 10 uM after 30 mins; format: ADME; settings: 0.5 h
# [4] = Plasma concentration in dog at 3 mg/kg, po after 24 hrs; format: ADME, organism-based, Canis lupus familiaris; parameters: dose 3 mg/kg, route oral
# [5] = Oral bioavailability in dog at 3 mg/kg after 24 hrs; format: ADME, organism-based, Canis lupus familiaris; settings: plasma
# [6] = AUC in dog at 3 mg/kg, po after 24 hrs; format: ADME, organism-based, Canis lupus familiaris; parameters: time < 24 hr, dose 3 mg/kg, route oral; settings: plasma
# [7] = Volume of distribution in dog at 1 mg/kg, iv after 24 hrs; format: ADME, organism-based, Canis lupus familiaris; parameters: dose 1 mg/kg, route intravenous; settings: in vivo
# [8] = Half life in dog at 1 mg/kg, iv after 24 hrs; format: ADME, organism-based, Canis lupus familiaris; parameters: dose 1 mg/kg, route intravenous; settings: in vivo
# [9] = Clearance in dog at 1 mg/kg, iv after 24 hrs; format: ADME, organism-based, Canis lupus familiaris; parameters: dose 1 mg/kg, route intravenous; settings: in vivo
# [10] = Clearance in rat at 2 mg/kg, iv after 4 hrs; format: ADME, organism-based; parameters: dose 2 mg/kg, route intravenous; settings: in vivo
# [11] = Plasma concentration in rat at 5 mg/kg, po after 4 hrs; format: ADME, organism-based; parameters: dose 5 mg/kg, route oral
# [12] = Drug uptake in rat liver at 5 mg/kg, po after 4 hrs; format: ADME, organism-based; parameters: dose 5 mg/kg, route oral; settings: read-out: Drug uptake
# [13] = AUC in rat at 5 mg/kg, po after 4 hrs; format: ADME, organism-based; parameters: time < 4 hr, dose 5 mg/kg, route oral; settings: plasma
# [14] = Half life in rat at 2 mg/kg, iv after 24 hrs; format: ADME, organism-based; parameters: dose 2 mg/kg, route intravenous; settings: in vivo
# [15] = Volume of distribution in rat at 2 mg/kg, iv after 24 hrs; format: ADME, organism-based; parameters: dose 2 mg/kg, route intravenous; settings: in vivo
# [16] = Clearance in rat at 2 mg/kg, iv after 24 hrs; format: ADME, organism-based; parameters: dose 2 mg/kg, route intravenous; settings: in vivo
# [17] = Permeability of the compound at PH 7.4 by PAMPA; format: ADME; settings: read-out: permeability
# Liver microsome [18] = test: Metabolic stability of the compound in human liver microsomes assessed as GSH adduct formation at 10 uM after 30 mins; settings: 0.5 h
# [19] = Oral bioavailability in mouse at 20 mg/kg after 24 hrs; format: ADME, organism-based; settings: plasma
# [20] = AUC in mouse at 20 mg/kg, po after 24 hrs; format: ADME, organism-based; parameters: time < 24 hr, dose 20 mg/kg, route oral; settings: plasma
# [21] = Drug uptake in mouse liver at 20 mg/kg, po after 24 hrs; format: ADME, organism-based; parameters: dose 20 mg/kg, route oral; settings: read-out: Drug uptake
# [22] = Plasma concentration in mouse at 20 mg/kg, po after 24 hrs; format: ADME, organism-based; parameters: dose 20 mg/kg, route oral
# [23] = Volume of distribution in mouse at 5 mg/kg, iv after 24 hrs; format: ADME, organism-based; parameters: dose 5 mg/kg, route intravenous; settings: in vivo
# [24] = Half life in mouse at 5 mg/kg, iv after 24 hrs; format: ADME, organism-based; parameters: dose 5 mg/kg, route intravenous; settings: in vivo
# [25] = Clearance in mouse at 5 mg/kg, iv after 24 hrs; format: ADME, organism-based; parameters: dose 5 mg/kg, route intravenous; settings: in vivo
# [26] = Plasma concentration in rat at 5 mg/kg, po after 24 hrs; format: ADME, organism-based; parameters: dose 5 mg/kg, route oral
# [27] = Permeability from basolateral to apical side of human Caco2 cells; format: ADME, cell-based; settings: Caco-2, read-out: permeability
# [28] = Permeability from apical to basolateral side of human Caco2 cells; format: ADME, cell-based; settings: Caco-2, read-out: permeability
# [29] = Drug uptake in rat liver at 5 mg/kg, po after 24 hrs; format: ADME, organism-based; parameters: dose 5 mg/kg, route oral; settings: read-out: Drug uptake
# [30] = Ratio of drug level in liver to plasma in rat at 5 mg/kg, po after 24 hrs; format: ADME, organism-based; parameters: dose 5 mg/kg, route oral
# [31] = Oral bioavailability in rat at 5 mg/kg after 24 hrs; format: ADME, organism-based; settings: in vivo
# [32] = AUC in rat at 5 mg/kg, po after 24 hrs; format: ADME, organism-based; parameters: time < 24 hr, dose 5 mg/kg, route oral; settings: plasma
Structure (SMILES),concentration at 24 h [4] [nM],bioavailability [5] [%],AUC at 24 h [6] [µM·h],Vd [7] [L/kg],half-life [8] [h],clearance [9] [mL/min/kg],concentration at 4 h [11] [nM],concentration at 4 h [12] [nM],AUC at 4 h [13] [µM·h],half-life [14] [h],Vd [15] [L/kg],clearance [16] [mL/min/kg],Papp [17] [×10⁻⁶ cm/s],also measured
O=C([C@@H](c1ccccc1)N1CCCCC1)N1CCC[C@H]1c1ncc(-c2ccc(-c3ccc(-c4cnc([C@@H]5CCCN5C(=O)[C@@H](c5ccccc5)N5CCCCC5)[nH]4)cc3)cc2)[nH]1,8.3,14,0.272,10,> 12,28,13,1200,0.047,7.7,20,63,25.1,Stability (Liver microsome [1]): Unstable; Stability (Liver microsome [2]): Unstable; Stability (Liver microsome [3]): Stable; clearance [10]: 58 mL/min/kg; Stability (Liver microsome [18]): Stable
COC(=O)N[C@@H](C(=O)N1CCC[C@H]1c1ncc(-c2ccc(-c3ccc(-c4cnc([C@@H]5CCCN5C(=O)[C@H]5CCCO5)[nH]4)cc3)cc2)[nH]1)c1ccccc1,6,45,1.52,7.5,> 10,22,234,2570,0.809,6.9,0.3,4.4,46.4,bioavailability [19]: 17%; AUC at 24 h [20]: 15.1 µM·h; concentration at 24 h [21]: 253 nM; concentration at 24 h [22]: 59 nM; Vd [23]: 1.9 L/kg; half-life [24]: 2.9 h; clearance [25]: 5.3 mL/min/kg; concentration at 24 h [26]: 4.5 nM; Papp B→A [27]: 10.5 ×10⁻⁶ cm/s; Papp A→B [28]: < 1.5 ×10⁻⁶ cm/s; concentration at 24 h [29]: 116 nM; Kp at 24 h [30]: 26; bioavailability [31]: 6.8%; AUC at 24 h [32]: 1.83 µM·h
